In patent EP1208096B1, “SUBSTITUTED PYRIDAZINES AND FUSED PYRIDAZINES WITH ANGIOGENESIS INHIBITING ACTIVITY” (Bayer Corporation, priority 1999, dated 2001):

How the values were obtained:
[1] = system: SK-MEL2 human tumor cells that were transfected with a plasmid containing the murine VEGF gene; assay: Matrigel Angiogenesis Model (hemoglobin content of Matrigel plugs); type: in vivo, Mice; details: 30, 100 and 300 mg/kg po sid; 12 days post-implantation; vs. vehicle control animals
Procedure: Preparation of Matrigel Plugs and in vivo Phase: Matrigel® (Collaborative Biomedical Products, Bedford, MA) is a basement membrane extract from a murine tumor composed primarily of laminin, collagen IV and heparan sulfate proteoglycan. It is provided as a sterile liquid at 4° C, but rapidly forms a solid gel at 37° C.
Liquid Matrigel at 4° C was mixed with SK-MEL2 human tumor cells that were transfected with a plasmid containing the murine VEGF gene with a selectable marker. Tumor cells were grown in vitro under selection and cells were mixed with cold liquid Matrigel at a ratio of 2 X 10^6 per 0.5 ml. […]
Optical densities were determined spectrophotometrically at 600 nm in a 96-well plate reader, SpectraMax 250 Microplate Spectrophotometer System (Molecular Devices, Sunnyvale, CA). Background Lysis Buffer readings were subtracted from all wells.
Total sample hemoglobin content was calculated according to the following equation: Total Hemoglobin = (Sample Lysate Volume) x (Hemoglobin Concentration) [formula]
The average Total Hemoglobin of Matrigel samples without cells was subtracted from each Total Hemoglobin Matrigel sample with cells. Percent inhibition was calculated according to the following equation: % Inhibition =((Average Total Hemoglobin Drug-Treated Tumor Lysates) X 100)/((Average Total Hemoglobin Non-Treated Tumor Lysates)) [formula]

[2] = target: T1, cytosolic kinase domain of KDR kinase (Homo sapiens, UniProt P35968); assay: KDR Assay (ELISA, phosphorylation of poly(Glu4;Tyr1)); type: biochemical; details: 3.3 µM ATP, 60 minutes at room temperature, 30 ng KDR kinase domain
T1 construct: The cytosolic kinase domain of KDR kinase was expressed as a 6His fusion protein in Sf9 insect cells; 6His; made in house; host or cells: Sf9 insect cells
T1 sequence (P35968 834-1162 limits assumed): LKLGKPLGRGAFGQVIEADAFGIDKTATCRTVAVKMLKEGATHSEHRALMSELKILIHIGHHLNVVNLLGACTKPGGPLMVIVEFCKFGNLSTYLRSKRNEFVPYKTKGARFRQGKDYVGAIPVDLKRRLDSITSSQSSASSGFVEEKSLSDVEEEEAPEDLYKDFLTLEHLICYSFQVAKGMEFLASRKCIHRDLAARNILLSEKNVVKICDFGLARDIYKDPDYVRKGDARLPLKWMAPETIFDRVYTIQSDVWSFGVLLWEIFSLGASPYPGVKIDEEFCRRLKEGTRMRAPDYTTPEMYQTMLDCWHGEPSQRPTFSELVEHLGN
Procedure: The cytosolic kinase domain of KDR kinase was expressed as a 6His fusion protein in Sf9 insect cells. The KDR kinase domain fusion protein was purified over a Ni^++ chelating column. Ninety-six well ELISA plates were coated with 5 µg poly(Glu4;Tyr1) (Sigma Chemical Co., St Louis, MO) in 100 µl HEPES buffer (20 mM HEPES, pH 7.5, 150 mM NaCl, 0.02% Thimerosal) at 4° overnight. Before use, the plate was washed with HEPES, NaCl buffer and the plates were blocked with 1% BSA, 0.1% Tween 20 in HEPES, NaCl buffer.
Test compounds were serially diluted in 100% DMSO from 4 mM to 0.12 µM in half-log dilutions. These dilutions were further diluted twenty fold in H2O to obtain compound solutions in 5% DMSO. Following loading of the assay plate with 85 µl of assay buffer (20 mM HEPES, pH 7.5, 100 mM KCl, 10 mM MgCl2, 3 mM MnCl2, 0.05% glycerol, 0.005% Triton X-100, 1 mM -mercaptoethanol, with or without 3.3 µM ATP), 5 µl of the diluted compounds were added to a final assay volume of 100 µl. Final concentrations were between 10 µM, and 0.3 nM in 0.25% DMSO. The assay was initiated by the addition of 10µl (30 ng) of KDR kinase domain.
The assay was incubated with test compound or vehicle alone with gentle agitation at room temperature for 60 minutes. The wells were washed and phosphotyrosines (PY) were probed with an anti-phosphotyrosine (PY), mAb clone 4G10 (Upstate Biotechnology, Lake Placid, NY). PY/anti-PY complexes were detected with an anti-mouse IgG/HRP conjugate (Amersham International plc, Buckinghamshire, England). Phosphotyrosine was quantitated by incubating with 100 µl 3, 3', 5, 5' tetramethylbenzidine solution (Kirkegaard and Perry, TMB Microwell 1 Component peroxidase substrate). Color development was arrested by the addition of 100 µl 1% HCl-based stop solution (Kirkegaard and Perry, TMB I Component Stop Solution).
Optical densities were determined spectrophotometrically at 450 nm in a 96-well plate reader, SpectraMax 250 (Molecular Devices). Background (no ATP in assay) OD values were subtracted from all ODs and the percent inhibition was calculated according to the equation: % Inhibition =((OD(vehicle control) - OD(with compound)) X 100)/(OD(vehicle control) - OD(no ATP added)) [formula]
The IC50 values were determined with a least squares analysis program using compound concentration versus percent inhibition. Compounds that have IC50 < 100 nM in this assay include those of Examples 1, 2, 4, 5, 6, 7, 10, 11, 12, 13, 14, 15, 16 and 23. Compounds that have IC50 values between 100 nM and 1,000 nM include those of examples 8, 9 and 22. Those that have measured IC50 values > 1,000 nM include those of examples 3, 17, 18 and 21.

IC50 [2]: < 100 nM
Compound: CNC(=O)c1cc(Cc2nnc(Nc3ccc(Cl)cc3)c3ccccc23)ccn1 [Example 1, 4-[4-(4-Chlorophenylamino)phthalazin-1-ylmethyl]pyridin-2-yl carboxylic acid methylamide]
inhibition of total hemoglobin content of the Matrigel samples [1]: > 50%
